EPA's ToxValDB 9.5 (doi:10.2903/j.efsa.2016.4554)

How the values were obtained:
Apis mellifera = details: acute, mortality
Bibionidae = details: chronic/long-term; duration: 28 days
Colinus virginianus = details: reproduction developmental; duration: 22 weeks
Daphnia magna = details: chronic/long-term; duration: 21 days
Folsomia candida = details: chronic/long-term; duration: 28 days; reproduction
Mus musculus = details: chronic; duration: 18 months; histopathology: neoplastic
Oncorhynchus mykiss = details: acute; mortality
Pimephales promelas = details: chronic/long-term
Tagia sp. = details: chronic/long-term; duration: 56 days; other
Typhlodromus pyri = assay: LR50; higher = less toxic; details: not reported; mortality

| SMILES | LD50 (Apis mellifera; dermal) [µg/piece] | LD50 (Apis mellifera; oral, unspecified) [µg/piece] | NOEC (Bibionidae) [mg/L] | NOEL (Colinus virginianus) [mg/kg-day] | NOEC (Daphnia magna) [mg/L] | NOEC (Folsomia candida) [mg/kg] | NOAEL (Mus musculus) [mg/kg-day] | LD50 (Oncorhynchus mykiss) [mg/L] | NOEC (Pimephales promelas) [mg/L] | LOAEL (Rattus norvegicus; acute, neurology) [mg/kg-day] | NOAEL (Rattus norvegicus; reproduction developmental, M, body weight) [mg/kg-day] | NOAEL (Rattus norvegicus; subchronic, duration: 90 days, oral, organ weight) [mg/kg-day] | NOEC (Tagia sp.) [mg/kg] | LR50 (Typhlodromus pyri) [g/ha] |
| --- | --- | --- | --- | --- | --- | --- | --- | --- | --- | --- | --- | --- | --- | --- |
| C#CC(C)(C)NC(=O)c1cc(Cl)cc(Cl)c1 [Propyzamide] | > 100 | > 100 | 0.34 | 30.9 | 0.6 | 1.4 | 5 | > 4.7 | 0.224 | 40 | 12.1 | 4.5 | 3.3 | 1890 |
| CC(=O)C(C)(C)NC(=O)c1cc(Cl)cc(Cl)c1 [Benzamide, 3,5-dichloro-N-(1,1-dimethyl-2-oxopropyl)-] |  |  |  |  |  | 20 |  |  |  |  |  |  |  |  |
